{"source": "patent US20180362580A1", "about": "“CRYSTALLINE AND AMORPHOUS FORMS OF CARFILZOMIB” (Mylan Laboratories Limited, priority 2015, published 2018)", "test": "Long term storage stability of the crystalline form, measured by PXRD", "format": "physicochemical", "settings": "stored at 2° C. to 8° C. for one year; solid form checked by PXRD", "method": "The polymorphs disclosed herein may be characterized by their X-ray powder diffraction (PXRD) patterns. Thus, samples of carfilzomib prepared by processes disclosed herein, including crystalline carfilzomib form M1 and amorphous carfilzomib, were analyzed by PXRD on a BRUKER D-8 DISCOVER powder diffractometer equipped with goniometer of θ/2θ configuration and LYNX EYE detector. The Cu-anode X-ray tube was operated at 40 kV and 30 mA. The experiments were conducted over the 2θ range of 2.0°-50.0°, 0.030° step size, and 0.4 seconds step time.\nIn some samples, individual impurities were present at levels less than 0.1%.", "note": "“Also recorded” adds a separate entry of the source."}
{"smiles": "CC(C)C[C@H](NC(=O)[C@H](CCc1ccccc1)NC(=O)CN1CCOCC1)C(=O)N[C@@H](Cc1ccccc1)C(=O)N[C@@H](CC(C)C)C(=O)[C@@]1(C)CO1", "note": "[crystalline carfilzomib form M1, (2S)-N-((S)-1-((S)-4-methyl-1-((R)-2-methyloxiran-2-yl)-1-oxopentan-2-ylcarbamoyl)-2-phenylethyl)-2-((S)-2-(2-morpholinoacetamido)-4-phenylbutanamido)-4-methylpentanamide]", "values": [{"measurement": "stability (measured by PXRD)", "result": "exhibited stability; also recorded: stable"}]}
